Laboratory results: patent US12612412B2, “Antiviral heterocyclic compounds” (Enanta Pharmaceuticals, Inc., priority 2021, dated 2026)

tested on: genotype A, "Long" strain RSV; assay: RSV-A assay (CPE protection in Hep-2 cells, ATPlite readout); format: cell-based, Human respiratory syncytial virus (HRSV); conditions: human respiratory syncytial virus, genotype A “Long” strain RSV, MOI 0.1, CPE protection, read-out: Human RSV-A (“Long”)
From the text: Hep-2 cells, (originally derived from tumors grown in irradiated-cortisonised weanling rats that had been injected with epidermoid carcinoma tissue from the larynx of a person, but later found to be indistinguishable from HeLa cells by PCR DNA analysis), were used for the culturing of genotype A, “Long” strain RSV. Flasks were inoculated with RSV and viral stocks were collected once cytopathic effect (CPE) was greater than 90%. Viral stocks in 25% sucrose media were snap frozen using liquid nitrogen to increase viral stability. Viral stock titers were quantified by tissue culture infectious dose 50% (TCID50) using 8,000 cells per well and 3-fold viral dilutions across a 96-well plate, cultured for 4 days. Viral stock titers were also quantified by a plaque forming unit assay, as described elsewhere.
Following extensive parameter testing, the final assay is run as follows: Hep-2 cells are seeded into the inner 60 wells of a 96-well plate at 8,000 cells per well in a volume of 50 μL using Growth Media (DMEM without phenol red, 1% L-Glut, 1% Penn/Strep, 1% nonessential amino acids, 10% heat-inactivated FBS). 2-fold serial dilutions of control and test compounds are added to the wells in duplicate in a total volume of 25 μL. Viral stock is then added to the wells at a multiplicity of infection (MOI) of 0.1 in a volume of 25 μL, bringing the total volume of each well to 100 μL. The MOI is calculated using the PFU/mL, or TCID50 if unavailable. Each 96-well plate has a control column of 6 wells with cells and virus but no compound (negative control, max CPE), a column with cells but no compound or virus (positive control, minimum CPE), and a column with no cells or virus or compound (background plate/reagent control). The control wells with cells but no virus are given an additional 25 μL of growth media containing an equal quantity of sucrose as those wells receiving the viral stock in order to keep consistent in media and volume conditions. The outer wells of the plate are filled with 125 μL of moat media (DMEM, 1% Penn/Strep) to act as a thermal and evaporative moat around the test wells. Following a 5-day incubation period, the plates are read using ATPlite (50 uL added per well), which quantifies the amount of ATP (a measure of cell health) present in each well. Assay plates are read using the Envision luminometer. […] EC50 ranges are as follows: A<0.2 μM; B>0.2 μM.

SMILES | EC50 [µM]
COc1cc(C(=O)NC[C@](O)(c2cc3c(c(-c4ccc(F)cc4)n2)OC[C@]3(C)C(N)=O)C(F)(F)F)cc2cc(C)c(C(=O)O)nc12 [Example 5] | > 0.2
Cc1nc2c(F)cc(C(=O)NC[C@](O)(c3cc4c(c(-c5ccc(F)cc5)n3)OC[C@]4(C)C(N)=O)C(F)(F)F)cc2s1 [Example 15] | < 0.2
C[C@]1(C(N)=O)COc2c1cc([C@@](O)(CNC(=O)c1ccc3nc(C4CC4)sc3c1)C(F)(F)F)nc2-c1ccc(F)c(Cl)c1 [Example 18] | < 0.2
C[C@]1(C(N)=O)COc2c1cc([C@@](O)(CNC(=O)c1cnc3nc(C4CC4)sc3c1)C(F)(F)F)nc2-c1ccc(F)cc1 [Example 21] | < 0.2
Cn1nc(F)c2cc(C(=O)NC[C@](O)(c3cc4c(c(-c5ccc(F)cc5)n3)OC[C@]4(C)C(N)=O)C(F)(F)F)ccc21 [Example 31] | > 0.2
C[C@]1(C(N)=O)COc2c1cc([C@@](O)(CNC(=O)c1ccn3cc(C4CC4)nc3c1)C(F)(F)F)nc2-c1ccc(F)cc1 [Example 33] | > 0.2
CC(C)(O)CNC(=O)[C@@]1(C)COc2c1cc([C@@](O)(CNC(=O)c1ccc3c(c1)CN(C1CC1)C3=O)C(F)(F)F)nc2-c1ccc(F)cc1 [Example 35] | < 0.2
CCN1Cc2cc(C(=O)NC[C@](O)(c3cc4c(c(-c5ccc(F)cc5)n3)OC[C@]4(C)C(N)=O)C(F)(F)F)ccc2C1=O [Example 36] | < 0.2
Cc1ccc2cc(C(=O)NC[C@](O)(c3cc4c(c(-c5ccc(F)cc5)n3)OC[C@]4(C)C(N)=O)C(F)(F)F)cc(N3CCCC3=O)c2n1 [Example 38] | > 0.2
Cc1ccc2cc(C(=O)NC[C@](O)(c3cc4c(c(-c5ccc(F)c(Cl)c5)n3)OC[C@]4(C)C(N)=O)C(F)(F)F)cc(N3CCCC3=O)c2n1 [Example 39] | > 0.2
COc1cc(C(=O)NC[C@](O)(c2cc3c(c(-c4ccc(F)c(Cl)c4)n2)OC[C@]3(C)C(N)=O)C(F)(F)F)cc2cn(C(F)F)nc12 [Example 46] | < 0.2
C[C@]1(C(N)=O)COc2c1cc([C@@](O)(CNC(=O)c1ccc3nc(N)cn3c1)C(F)(F)F)nc2-c1ccc(F)cc1 [Example 56] | > 0.2
COc1cc(C(=O)NC[C@](O)(c2cc3c(c(-c4ccc(F)cc4)n2)OC[C@]3(C)C(N)=O)C(F)(F)F)cn2cc(C(N)=O)nc12 [Example 61] | < 0.2
CC(C)(O)c1cn2cc(C(=O)NC[C@](O)(c3cc4c(c(-c5ccc(F)cc5)n3)OC[C@]4(C)C(N)=O)C(F)(F)F)cc(F)c2n1 [Example 66] | > 0.2
C[C@]1(C(N)=O)COc2c1cc([C@@](O)(CNC(=O)c1ccn3nc(C4CC4)cc3c1)C(F)(F)F)nc2-c1ccc(F)c(Cl)c1 [Example 67] | < 0.2
C[C@]1(C(N)=O)COc2c1cc([C@@](O)(CNC(=O)c1ccc3ncc(C(F)(F)F)cc3c1)C(F)(F)F)nc2-c1ccc(F)cc1 [Example 69] | < 0.2
COc1cc(C(=O)NC[C@](O)(c2cc3c(c(-c4ccc(F)cc4)n2)OC[C@]3(C)C(N)=O)C(F)(F)F)cc2cc3c(nc12)CCC3 [Example 71] | < 0.2
COc1cc(C(=O)NC[C@](O)(c2cc3c(c(-c4ccc(F)cc4)n2)OC[C@]3(C)C(N)=O)C(F)(F)F)cc2cc(C(=O)O)c(C)nc12 [Example 76] | > 0.2
C[C@]1(C(N)=O)COc2c1cc([C@@](O)(CNC(=O)c1cc(F)c3nc(C(N)=O)cn3c1)C(F)(F)F)nc2-c1ccc(F)cc1 [Example 79] | > 0.2
C[C@]1(C(N)=O)COc2c1cc([C@@](O)(CNC(=O)c1ccn3nc(N)cc3c1)C(F)(F)F)nc2-c1ccc(F)cc1 [Example 87] | < 0.2
C[C@]1(C(N)=O)COc2c1cc([C@@](O)(CNC(=O)c1ccn3nc(C4CC4)cc3c1)C(F)(F)F)nc2-c1ccc(F)cc1 [Example 88] | < 0.2
COc1cc(C(=O)NC[C@](O)(c2cc3c(c(-c4ccc(F)cc4)n2)OC[C@]3(C)C(N)=O)C(F)(F)F)cc2nc(N)oc12 [Example 89] | < 0.2

Second part, the compound after the results:

EC50 [µM] | SMILES
< 0.2 | C[C@]1(C(N)=O)COc2c1cc([C@@](O)(CNC(=O)c1cc(F)c3oc(N)nc3c1)C(F)(F)F)nc2-c1ccc(F)cc1 [Example 90]
< 0.2 | C[C@]1(C(N)=O)COc2c1cc([C@@](O)(CNC(=O)c1cc(F)c3[nH]c(C4CC4)nc3c1)C(F)(F)F)nc2-c1ccc(F)cc1 [Example 93]
< 0.2 | C[C@]1(C(N)=O)COc2c1cc([C@@](O)(CNC(=O)c1cc(Cl)c3nnc(C(F)(F)F)cc3c1)C(F)(F)F)nc2-c1ccc(F)cc1 [Example 98]
< 0.2 | COc1cc(C(=O)NC[C@](O)(c2cc3c(c(-c4ccc(F)cc4)n2)OC[C@]3(C)C(N)=O)C(F)(F)F)cc2cn(CC(F)(F)F)nc12 [Example 99]
< 0.2 | Cc1c(C(=O)NC[C@](O)(c2cc3c(c(-c4ccc(F)cc4)n2)OC[C@]3(C)C(N)=O)C(F)(F)F)ccc2[nH]ncc12 [Example 101]
< 0.2 | C[C@]1(C(N)=O)COc2c1cc([C@@](O)(CNC(=O)c1cc(F)c3[nH]ncc3c1)C(F)(F)F)nc2-c1ccc(F)cc1 [Example 104]
> 0.2 | C[C@]1(C(N)=O)COc2c1cc([C@@](O)(CNC(=O)c1cc3cn[nH]c3cc1Cl)C(F)(F)F)nc2-c1ccc(F)cc1 [Example 106]
> 0.2 | C[C@]1(C(N)=O)COc2c1cc([C@@](O)(CNC(=O)c1ccc3[nH]nnc3c1)C(F)(F)F)nc2-c1ccc(F)cc1 [Example 107]
> 0.2 | C[C@]1(C(N)=O)COc2c1cc([C@@](O)(CNC(=O)c1ccc3nncn3c1)C(F)(F)F)nc2-c1ccc(F)cc1 [Example 109]
> 0.2 | C[C@]1(C(N)=O)COc2c1cc([C@@](O)(CNC(=O)c1ccc3nnnn3c1)C(F)(F)F)nc2-c1ccc(F)cc1 [Example 110]
> 0.2 | C[C@]1(C(N)=O)COc2c1cc([C@@](O)(CNC(=O)c1cc(O)c3[nH]ncc3c1)C(F)(F)F)nc2-c1ccc(F)cc1 [Example 111]
< 0.2 | Cc1cnc2c(Nc3ccc(C(C)C)nn3)cc(C(=O)NC[C@](O)(c3cc4c(c(-c5ccc(F)cc5)n3)OC[C@]4(C)C(N)=O)C(F)(F)F)cc2c1 [Example 115]
< 0.2 | Cc1cnc2c(Nc3ccc(C(F)(F)F)nn3)cc(C(=O)NC[C@](O)(c3cc4c(c(-c5ccc(F)cc5)n3)OC[C@]4(C)C(N)=O)C(F)(F)F)cc2c1 [Example 116]
< 0.2 | CCc1ccc(Nc2cc(C(=O)NC[C@](O)(c3cc4c(c(-c5ccc(F)cc5)n3)OC[C@]4(C)C(N)=O)C(F)(F)F)cc3cc(C)cnc23)nn1 [Example 117]
< 0.2 | Cc1cnc2c(Nc3ccc(C(C)(C)C)nn3)cc(C(=O)NC[C@](O)(c3cc4c(c(-c5ccc(F)cc5)n3)OC[C@]4(C)C(N)=O)C(F)(F)F)cc2c1 [Example 118]
< 0.2 | Cc1cnc2c(Nc3ccc(F)nn3)cc(C(=O)NC[C@](O)(c3cc4c(c(-c5ccc(F)cc5)n3)OC[C@]4(C)C(N)=O)C(F)(F)F)cc2c1 [Example 119]
< 0.2 | Cc1cc(C(=O)NC[C@](O)(c2cc3c(c(-c4ccc(F)cc4)n2)OC[C@]3(C)C(N)=O)C(F)(F)F)cc2cn[nH]c12 [Example 122]
< 0.2 | CC(C)c1cc(C(=O)NC[C@](O)(c2cc3c(c(-c4ccc(F)cc4)n2)OC[C@]3(C)C(N)=O)C(F)(F)F)cc2cn[nH]c12 [Example 123]
> 0.2 | CC(C)c1cc2[nH]ncc2cc1C(=O)NC[C@](O)(c1cc2c(c(-c3ccc(F)cc3)n1)OC[C@]2(C)C(N)=O)C(F)(F)F [Example 125]
> 0.2 | C[C@]1(C(N)=O)COc2c1cc([C@@](O)(CNC(=O)c1cc3cn[nH]c3cc1C1CC1)C(F)(F)F)nc2-c1ccc(F)cc1 [Example 126]
> 0.2 | Cc1cc2[nH]ncc2cc1C(=O)NC[C@](O)(c1cc2c(c(-c3ccc(F)cc3)n1)OC[C@]2(C)C(N)=O)C(F)(F)F [Example 127]
< 0.2 | C[C@]1(C(N)=O)COc2c1cc([C@@](O)(CNC(=O)c1ccc3nc(C(N)=O)sc3c1)C(F)(F)F)nc2-c1ccc(F)cc1 [Example 130]
< 0.2 | COc1cc(C(=O)NC[C@](O)(c2cc3c(c(-c4ccc(F)cc4)n2)OC[C@]3(C)C(N)=O)C(F)(F)F)ccc1OC[C@@H](O)C(F)(F)F [Example 131]
< 0.2 | COc1cc(C(=O)NC[C@](O)(c2cc3c(c(-c4ccc(F)cc4)n2)OC[C@]3(C)C(N)=O)C(F)(F)F)ccc1OC[C@H](C)O [Example 133]
> 0.2 | C[C@]1(C(N)=O)COc2c1cc([C@@](O)(CNC(=O)c1ccc3nc(NS(C)(=O)=O)sc3c1)C(F)(F)F)nc2-c1ccc(F)cc1 [Example 140]
> 0.2 | COc1cc(C(=O)NC[C@](O)(c2cc3c(c(-c4ccc(F)cc4)n2)OC[C@]3(C)C(N)=O)C(F)(F)F)cc2c1cnn2C1CC1 [Example 144]
> 0.2 | C[C@]1(C(N)=O)COc2c1cc([C@@](O)(CNC(=O)c1cc(Cl)c3cnn(C4CC4)c3c1)C(F)(F)F)nc2-c1ccc(F)cc1 [Example 145]
